According to patent publication US11246872B2, “Topical acyclovir formulations and uses thereof” (priority 2019, dated 2022):
Like-named read-outs stand apart in the source and are kept apart here.

Type: physicochemical
Protocol: This Example studies the solubility and stability of acyclovir in various topical excipients. Table 1 and Table 2 below indicate the various excipients that solubility was tested in and stability of acyclovir in these excipients, respectively. [table]

Saturated solubility of Acyclovir (pH 4): 0.10 (0.10-0.10) % w/w
Saturated solubility of Acyclovir (pH 6): 0.10 (0.09-0.10) % w/w
Compound: Nc1nc2c(ncn2COCCO)c(=O)[nH]1 [Acyclovir]
